One test concerns frog atrial cells. The following applies: cited from earlier work.
Test [1] concerns L and T type calcium channels. The following applies: cited from earlier work.
The subject of test [2] is T type calcium channel. Nature of the test: Patch clamp (voltage clamp) of T type calcium channel current in neuroblastoma cells. The class given is cell-based, mouse. The settings on record: for T type calcium channel current: 1 uM, neuroblastoma cells, FIG. 3. (In general: The patch-clamp technique gives a direct electrical read-out from membranes.)
A further test deals with neuroblastoma cell. As to the kind of experiment: Current clamp measurement of membrane potential of a neuroblastoma cell. The test is classed as cell-based, mouse.
Another test deals with L type calcium channel. Nature of the test: Patch clamp (voltage clamp) of L type calcium channel current in neuroblastoma cells. The class given is cell-based, mouse.
The next test concerns right atrium. The following applies: spontaneously beating right atrium; cited from earlier work.
Test [3] relates to T type calcium channel. As to the kind of experiment: Patch clamp (voltage clamp) of T type calcium channel current in chick dorsal root ganglion neurons. The class given is cell-based, chick (gallus domesticus). The settings on record: DRG neurons; FIG. 2B.
For a further test, the system named is SA node. The following applies: cited from earlier work.

Take `N=C(NCc1ccc(Cl)c(Cl)c1)NC(=O)c1nc(Cl)c(N)nc1N` [3,4-dichlorobenzamil]: in the test with frog atrial cells, the calcium currents entry is reported as “inhibited calcium currents in frog atrial cells”.

On to `COC(=O)C1=C(C)NC(C)=C(C(=O)OC)C1c1ccccc1[N+](=O)[O-]` [Nifidepine, nifidepine], for which, in test [1], the “calcium channel type blocked” value is reported as “blocks only the L type calcium channel”.

With `COc1ccc(CCN(C)CCCC(C#N)(c2ccc(OC)c(OC)c2)C(C)C)cc1OC` (stereo not shown) [Verapamil, verapamil], in test [1], the “calcium channel type blocked” value is “block both the L and T type calcium channels”.

As to `COc1ccc(CNC(=N)NC(=O)c2nc(Cl)c(N)nc2N)cc1OC` [Dimethoxybenzamil, 3,4-dimethoxybenzamil], in the test on T type calcium channel [2], the “T type calcium channel current” value is listed as “similarly suppresses the T type current”.

On to `N=C(NCc1ccccc1)NC(=O)c1nc(Cl)c(N)nc1N` [benzamil], for which the regenerative depolarization entry with neuroblastoma cell (5 uM, after 1 uM TTX, current pulses of 40 picoamps, FIG. 4) is “further decreased the regenerative depolarization”. Further, the “T type calcium channel current” value with T type calcium channel [2] is listed as “reversably suppresses the bulk of the T type calcium channel current”. In the test with T type calcium channel [2] (relative to amiloride), the “increase of T channel activity by addition of a benzyl moiety to the guanidine portion of amiloride” value is recorded as “about fifty”. In addition, in the test with L type calcium channel (1 uM, neuroblastoma cells, FIG. 3), the L type current result was “without suppressing the L type current”.

Regarding `COc1ccc([C@@H]2Sc3ccccc3N(CCN(C)C)C(=O)[C@@H]2OC(C)=O)cc1` [diltiazem], in test [1], the “calcium channel type blocked” value was “block both the L and T type calcium channels”.

With `N=C(N)NC(=O)c1nc(Cl)c(N)nc1N` [amiloride], the “neuronal excitability near threshold” value with neuroblastoma cell (250 uM, current pulse to threshold and slightly above threshold, FIG. 5) is listed as “suppress neuronal excitability at membrane potential near the threshold for regenerative depolarization”. Besides, the “depolarization well above threshold” value with neuroblastoma cell (250 uM, higher degree of stimulation, FIG. 5) is “does not block the depolarization at higher degree of stimulation”. Besides, in the test with T type calcium channel [2] (N1E-115 cells, held at -90 mV, depolarization to -20 mV, FIG. 1A, 1C), the “T type calcium channel current (transient current)” value is on record as “suppresses this T type channel current”. Besides, the “L type calcium channel current (slow inactivating current)” value with L type calcium channel (N1E-115 cells, held at -90 mV, depolarization to +20 mV, FIG. 1A, 1D) was “does not appreciably suppress this L type channel current”. In the test on right atrium, the frequency of contractions result is “decreased the frequency of contractions of the spontaneously beating right atrium”. Also, the “T type calcium channel current” value in the test with T type calcium channel [3] was “completely suppressed the T type calcium channel current”. In addition, the chronotropic action entry in the test on SA node is on record as “negative chronotropic action on the SA node”.

The record behind these values is patent US4894376A, “Methods of treating diseases characterized by hyperexcitability of neurons” (Trustees of the University of Pennsylvania, priority 1988, dated 1990).
